Reference: patent publication US20080200531A1, “CDKI pathway inhibitors as inhibitors of tumor cell growth” (priority 2006, published 2008)

Legend:
[1] = tested on: human colon (HCT116) cancer xenografts; experiment: Therapeutic Dose Study in nude mice bearing HCT116 xenografts; format: in vivo; conditions: 70 mg/kg intra-tumorally; for decrease in the tumor size on day 31 relative to the control / mice that died or were sacrificed by day 31: 9 injections over three weeks; for mice that died or were sacrificed by day 31: groups of 10, control 60%; for P, decrease in the tumor size on day 31 relative to the control: 9 injections, paired two-tailed t-test, dead or sacrificed mice taken as 2000 mm^3
Procedure: Male NCr nude mice, aged approximately 6-8 weeks were used for the study, which was carried out as a service by Taconic Biotechnology, Rensselaer, N.Y. Animals were maintained under virus free barrier conditions with continuous health monitoring. The administration of test materials, all data collection and disposal of study animals was in compliance with all relevant Taconic Biotechnology Standard Operating Procedures as well as The Guide for the Care and Use of Laboratory Animals. Study animals were observed upon arrival and daily throughout the study for overall health, behavior and morbidity. Test animals were subject to body weight measurement to determine dosage volumes of test articles.
With this information, we then carried out the Therapeutic Dose Study of SNX9 and SNX9-1, in nude mice bearing established human colon (HCT116) cancer xenografts. HCT116 was from American Type Culture Collection (ATCC); ATCC information was referenced for the cryopreservation and growing of the cells. The cells were injected at 5×10^6 subcutaneously in the intra-scapular region. The tumor dimensions were measured using vernier calipers. To approximate the subcutaneous tumor size, the calipers were compressed on the skin slightly but not so tightly as to grip the subcutaneous mass. The maximal dimension of the tumor was recorded as L. The dimension perpendicular to L was recorded as W. The formula: Volume=0.5*L*W^2 was used. Eight days following tumor cell injection into the intra-scapular region, when all the tumor inoculi became palpable, groups of 10 mice were treated for 21 days with PBS (control), SNX9 or SNX9-1 (each at 70 mg/kg), dissolved as in the Range Finder Study.
The compounds were injected intra-tumorally three times a week, on alternating days, for a total of 9 injections per animal over three weeks. Mice were sacrificed when tumor size exceeded 2000 mm^3. […] By day 31 (2 days after the end of treatment), 6 of 10 mice in the control group (60%) died or were sacrificed, as compared to 40% of the mice in SNX9-treated group and only 10% of the mice in SNX9-1 treated group. Statistical analysis of differences in the tumor size on day 31 was carried out using paired two-tailed t-test; for this analysis, the tumor volume of all the mice that died or were sacrificed before day 31 was assumed to be 2000 mm^3.

CDK1/cyclinB (h) = molecular target: T1, CDK1/cyclinB (h) (Homo sapiens, UniProt P06493); experiment: Cyclin/CDK kinase assay (Upstate), CDK1/cyclinB; format: biochemical; conditions: 100 μM, re-tested at 20 and 40 μM (SNX9, SNX2) or 10 and 20 μM (SNX9-1, SNX14)
T1 construct: purchased Upstate Biotechnology, Inc
T1 sequence (P06493 whole entry): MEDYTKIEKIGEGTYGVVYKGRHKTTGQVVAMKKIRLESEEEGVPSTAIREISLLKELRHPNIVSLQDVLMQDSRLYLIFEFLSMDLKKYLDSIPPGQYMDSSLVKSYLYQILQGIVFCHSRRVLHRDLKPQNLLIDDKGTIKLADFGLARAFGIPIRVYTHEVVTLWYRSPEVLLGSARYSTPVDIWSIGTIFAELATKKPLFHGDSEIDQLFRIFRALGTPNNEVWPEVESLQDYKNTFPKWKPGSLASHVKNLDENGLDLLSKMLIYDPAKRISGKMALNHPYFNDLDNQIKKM
T1 sequence (P14635 whole entry partner): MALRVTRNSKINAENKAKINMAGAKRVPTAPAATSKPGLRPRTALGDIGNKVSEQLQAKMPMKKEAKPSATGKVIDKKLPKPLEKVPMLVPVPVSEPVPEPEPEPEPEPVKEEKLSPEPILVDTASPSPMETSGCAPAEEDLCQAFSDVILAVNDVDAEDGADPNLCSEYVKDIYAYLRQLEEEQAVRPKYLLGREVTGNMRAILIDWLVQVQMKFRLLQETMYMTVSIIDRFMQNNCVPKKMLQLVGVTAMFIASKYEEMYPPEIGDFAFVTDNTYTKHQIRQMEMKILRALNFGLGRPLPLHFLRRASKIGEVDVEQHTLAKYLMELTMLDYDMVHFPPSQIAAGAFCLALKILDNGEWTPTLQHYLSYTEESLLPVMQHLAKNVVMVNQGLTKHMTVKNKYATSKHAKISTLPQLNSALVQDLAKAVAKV
Procedure: (§1) To test the above hypothesis, we determined whether several CDKI pathway inhibitors, including two SNX9 class compounds (SNX9 and SNX9-1), two compounds of a different structural class (SNX14 and SNX2) and another unrelated inhibitor (SNX35), inhibit the kinase activity of different complexes formed in vitro by purified cyclin/CDK complexes. This analysis was carried out as a service by Upstate Biotechnology, Inc.
In a final reaction volume of 25 μl, CDK1/cyclinB (h) (5-10 μU) is incubated with 8 mM MOPS pH 7.0, 0.2 mM EDTA, 0.1 mg/ml histone H1, 10 mM MgAcetate and [γ-33P-ATP] (specific activity approx. 500 cpm/pmol, 45 μM concentration). The reaction is initiated by the addition of the MgATP mix. After incubation for 40 minutes at room temperature, the reaction is stopped by the addition of 5 μl of a 3% phosphoric acid solution. 10 μl of the reaction is then spotted onto a P30 filtermat and washed three times for 5 minutes in 75 mM phosphoric acid and once in methanol prior to drying and scintillation counting.
(§2) At the first step, all the compounds were tested at 100 μM concentration. […] For SNX14 and SNX2, the relative efficacy of inhibition was CDK1>CDK2˜CDK3>CDK6. For SNX9 and SNX9-1, the order was CDK3>CDK1>CDK2>CDK6 (FIG. 12).

[2] = tested on: p21-induced CMV-GFP expression (CDKI pathway); experiment: CMV-GFP reporter assay for p21-induced transcription (HTS) in HT1080 p21-9 derived reporter cell line; format: cell-based, human; conditions: for anti-CDKI pathway activity in the reporter assay (induction of CMV-GFP expression in response to p21): libraries screened at 20 μM
Text: As described in a co-pending patent application PCT/US06/0 1046, we have developed a high-throughput screening (HTS) procedure for compounds inhibiting the CDKI pathway. This procedure utilizes a highly sensitive reporter cell line that was generated by infecting HT1080 p21-9 cells, a derivative of HT1080 fibrosarcoma cells that express p21 from a promoter induced by a physiologically neutral β-galactoside IPTG (isopropyl-β-thio-galactoside) with a lentiviral vector that expresses Green Fluorescent Protein (GFP) from the CDKI-inducible cytomegalovirus (CMV) promoter, followed by subcloning of GFP positive cells and monitoring the induction of GFP expression by IPTG. A cell line showing approximately 10-fold increase in GFP upon the addition of IPTG was used for HTS in a 96-well format.
This reporter line was used to screen two diversified small-molecule libraries developed by ChemBridge Corp., Microformat 04 and DiverSet, each comprising 50,000 compounds. These diversified libraries were rationally chosen by ChemBridge by quantifying pharmacophores in a collection of >500,000 drug-like molecules, using a version of Chem-X software to maximize the pharmacophore diversity. The Microformat 04 collection was designed to complement the chemical space covered by the older DiverSet library. ChemBridge libraries have been successfully used by numerous industrial and academic researchers, in a variety of cell-based and cell-free assays. The ChemBridge libraries were screened at 20 μM concentration, a conventional concentration for cell-based screening of these libraries. 62 of 100,000 ChemBridge compounds were identified by HTS and verified as inhibiting the induction of CMV-GFP expression in response to p21. This low hit rate (0.06%) indicates a high selectivity of our assay.
In this experiment, HT1080 p21-9 cells that express firefly luciferase from a CDKI-responsive promoter of cellular NK4 gene were cultured with IPTG for two days, which is sufficient for near-maximal induction of NK4 (Poole et al., supra).

[3] = tested on: cyclin/CDK complexes (CDK1, CDK2, CDK3, CDK6); experiment: Cyclin/CDK kinase assays, comparison over all complexes; format: biochemical, human
Procedure: as §1, §2

SMILES	decrease in the tumor size on day 31 relative to the control [1]	mice that died or were sacrificed by day 31 [1] [%]	P, decrease in the tumor size on day 31 relative to the control [1]	kinase activity of CDK1 (CDC2) (CDK1/cyclinB (h))	anti-CDKI pathway activity in the reporter assay (induction of CMV-GFP expression in response to p21) [2]	relative efficacy of inhibition (order of CDKs) [3]	normalized GFP expression without p21 induction ([2]; in the absence of IPTG)	normalized GFP expression with p21 induction ([2]; in the presence of IPTG, three days of p21 induction)
NCCc1c[nH]c2c(Cl)cc(Cl)cc12 [SNX9-1]	highly significant	10	< 0.01	inhibited the kinase activities	showed anti-CDKI pathway activity in the reporter assay	CDK3>CDK1>CDK2>CDK6	–	–
Cc1[nH]c2c(Cl)cccc2c1CCN [SNX9]	did not reach statistical significance	40	< 0.3	inhibited the kinase activities	showed anti-CDKI pathway activity in the reporter assay	CDK3>CDK1>CDK2>CDK6	does not inhibit promoter function when p21 is not induced	pronounced inhibition of transcription by p21
